Patent US11377444B2, “Pyridopyrimidine compounds acting as mTORC 1/2 dual inhibitors” (MEDSHINE DISCOVERY INC., priority 2017, dated 2022)
Values joined by “and” are separate entries in the source; they are usually repeats but may differ in a detail not shown here. Identical values can stand only once.

Tests used:
[1] = tested on: human breast cancer MCF-7 cell subcutaneous xenograft tumor; test: In vivo pharmacodynamic study, MCF-7 subcutaneous xenograft tumor; set-up: species or system BALB/c nude mouse; details: for Tumor volume (27th day): mean ± SEM; for Tumor volume (day 0): day 0, mean ± SEM
Description: Experimental Embodiment 4: In Vivo Pharmacodynamic Study on BALB/c Nude Mouse Model of Human Breast Cancer MCF-7 Cell Subcutaneous Xenograft Tumor
Experimental objective: To study the efficacy of the test compounds on human breast cancer MCF-7 cell subcutaneous xenograft tumor in BALB/c nude mouse model.
Experimental animals: Female BALB/c nude mice, 6-8 weeks old, weighing 18-22 grams; supplier: Shanghai Xipuer-Bikai Experimental Animal Co., Ltd.
Human breast cancer MCF-7 cells (ECACC, article number: 86012803) were subjected to in vitro monolayer culture under the conditions of EMEM (EBSS)+2 mM […]+1% Non Essential Amino Acids (NEAA) medium containing 10% fetal bovine serum, 100 U/mL penicillin and 100 μg/mL streptomycin, and 37° C., 5% CO2incubator. Conventional digestion treatment was carried out with trypsin-EDTA twice a week for cell passage. When the cell saturation was 80%-90%, and the quantity reached the requirement, the cells were collected, counted and inoculated.
Estrogen tablets (0.18 mg) were inoculated into the left back of each mouse three days before cell inoculation, 0.2 mL (1×10^7) MCF-7 cells (added with matrigel, volume ratio of 1:1) were subcutaneously inoculated into the right back of each mouse. When the average volume of tumor reached 142 mm^3, the mice were divided into groups and began to be administrated.
The test compounds were prepared into clear solutions of 0.75 mg/mL, 1.5 mg/mL and 3 mg/mL. The vehicles were 5% DMSO+30% polyethylene glycol 300+65% water.
The experimental indexes were used for investigating whether the growth of the tumors had been inhibited, delayed or cured. The diameters of the tumors were measured with vernier calipers twice a week. The calculation formula of the tumor volume was: V=0.5a×b^2, wherein a and b represent the long and short diameters of the tumor respectively.
The antitumor efficacy of the compound was evaluated by TGI (%) or relative tumor proliferation rate T/C (%). TGI (%) reflects the inhibition rate of the tumor growth. Calculation of TGI (%): TGI (%)=[1−(average tumor volume at the end of administration in the treatment group−average tumor volume at the beginning of administration in the treatment group)/(average tumor volume at the end of treatment in the vehicle control group−average tumor volume at the beginning of treatment in the vehicle control group)]×[…].
Relative tumor proliferation rate T/C (%): The calculation formula was as follows: T/C %=TRTV/CRTV at the beginning of the treatment (TRTV: treatment group RTV; CRTV: negative control group RTV). The relative tumor volume (RTV) was calculated according to the results of tumor measurement. The calculation formula was RTV=Vt/V0, wherein V0 is the average tumor volume measured during administration of the groups (i.e. d0), and Vt is the average tumor volume during a certain measurement, the TRTV and CRTV were taken on the same day.
Statistical analysis included the mean and standard error (SEM) of tumor volume at each time point in each group. […] The comparison between two groups was analyzed by T-test, and the comparison between three or more groups was analyzed by one-way ANOVA.

N87 cell = test: Cell proliferation inhibitory activity (Cell-Titer-Glo), N87; assay type: cell-based; details: 72 h; 3 days incubation
Description: Experimental Embodiment 2: Evaluation of Cell Proliferation Inhibitory Activity
Experiment objective: To detect cell proliferation inhibitory activity of the tested compounds.
Experimental principle: The luciferase in the Cell-Titer-Glo reagent produces oxyluciferin using luciferin, oxygen and ATP as reaction substrates, and releases energy in the form of light. Since the reaction of luciferase requires ATP, the total amount of light generated by the reaction is proportional to the total amount of ATP that reflects cell viability.
Cell lines: MCF-7 cell line […], HT-29 cell line (ATCC-HTB-38), OE21 (ECACC-96062201), NCI-N87 cell line (ATCC-CRL-5822)
Cell culture medium: (RPMI 1640 culture medium (Invitrogen #1868546; 10% serum Invitrogen #1804958; L-glutamine 1×, Invitrogen #1830863; dual antibiotic Hyclone #J170012))
Cell Titer-Glo® Luminescent Cell Viability Assay Kit (Promega #G7573)
The cells were inoculated in a 384- or 96-well plate with a density of 1000 cells per well and 25 μL per well according to the instructions of the cell inoculating plate. The edge wells were not inoculated with cells, and was supplemented with […].
(i) The mother solution of the compound was 10 mM, and diluted with DMSO to an initial concentration of 4 mM. The compound was added to the compound mother solution, 9 μL per well.
(ii) The compound was diluted with ECHO liquid-handling workstation. Each well of the cell plate was added with 125 nL compound. Each well of the cell wells in 2nd column and 23rd column was added with 125 nL DMSO, and each of the PBS wells in 1st column and 24th column was added with 125 nL DMSO.
(iii) Each well of the cell plate was supplemented with 25 μL culture medium, the final volume in each well of the cell plate was 50 μL, […] 3 times dilution, 10 concentrations, each concentration was duplicated in left and right wells, the final DMSO concentration was 0.25%.
2.3. After addition of the compound, centrifugation was performed at 1000 rpm for 1 min, and the cell plate was placed in a 37° C., 5% CO2 incubator for 3 days.
The cell plate was taken out from the incubator and equilibrated at room temperature for 30 minutes. 25 μL Cell-Titer-Glo reagent was added to each well, shaken for one minute to mix thoroughly, centrifuged at 1000 rpm for 1 minute. After 10 minutes, the plate was read on PerkinElmer Envision with a […] reading time was set at 0.2 second.

| Structure (SMILES) | T/C ([1]; 7.5 mg/kg) | TGI ([1]; 7.5 mg/kg) | RTV (27th day) ([1]; 7.5 mg/kg) | Tumor volume (27th day) ([1]; 7.5 mg/kg) | Tumor volume (day 0) ([1]; 7.5 mg/kg) | T/C ([1]; 15 mg/kg) | TGI ([1]; 15 mg/kg) | difference compared with the vehicle control group ([1]; 15 mg/kg) | RTV (27th day) ([1]; 15 mg/kg) | Tumor volume (27th day) ([1]; 15 mg/kg) | Tumor volume (day 0) ([1]; 15 mg/kg) | IC50 (N87 cell) | T/C ([1]; 30 mg/kg) | TGI ([1]; 30 mg/kg) | difference compared with the vehicle control group ([1]; 30 mg/kg) | RTV (27th day) ([1]; 30 mg/kg) | Tumor volume (27th day) ([1]; 30 mg/kg) | Tumor volume (day 0) ([1]; 30 mg/kg) | TGI ([1]; 30 mg/kg, listed as embodiment 23) |
| --- | --- | --- | --- | --- | --- | --- | --- | --- | --- | --- | --- | --- | --- | --- | --- | --- | --- | --- | --- |
| CNC(=O)c1cccc(-c2ccc3c(N4CCOC[C@@H]4C)nc(N4CCOC[C@@H]4C)nc3n2)c1 [AZD2014, reference compound] | 53.95% | 61.10% | 2.25 ± 0.47 | 315 ± 65 mm^3 | 142 ± 9 mm^3 | 20.36% | 104% and 104.37% | significant difference | 0.85 ± 0.26 | 121 ± 41 mm^3 | 141 ± 8 mm^3 | 0.059 µM |  |  |  |  |  |  |  |
| CNC(=O)c1cccc(-c2ccc3c(N4CCOC[C@@H]4C)nc(N4CCOC5(CCC5)C4)nc3n2)c1 [Embodiment 23] | 83.52% | 22.14% | 3.48 ± 0.37 | 489 ± 51 mm^3 | 142 ± 9 mm^3 | 54.13% | 59.05% |  | 2.26 ± 0.48 | 324 ± 79 mm^3 | 141 ± 9 mm^3 | 0.094 µM | 25.50% | 98.33% | significant difference | 1.06 ± 0.17 | 150 ± 26 mm^3 | 141 ± 8 mm^3 | 98% |
| C[C@H]1COCCN1c1nc(N2CCOC3(CC3)C2)nc2nc(-c3cccc(C(N)=O)c3)ccc12 [Embodiment 51] |  |  |  |  |  | 57.84% | 59.27% |  | 2.41 ± 0.36 | 323 ± 25 mm^3 | 142 ± 11 mm^3 | 0.059 µM |  |  |  |  |  |  |  |
